Laboratory results from the supplement of paper PMC4862054.

Assays:
Details in all cases: incubation time: 72 h
MDA-MB-453 [1] = test: normalised response (% of control), CellTox Green; higher = less cell death (100 = DMSO, 0 = benzethonium chloride kill control)
Procedure, shortened: (§1)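 After 72 h with compound in 384-well plates, breast cancer cell lines seeded as 20 µl suspension were read for CellTox Green fluorescence at 485/520 nm. CellTiter-Glo luminescence was then read after 10 min at room temperature. Compound was present at 5 concentrations in 10-fold steps over a 10,000-fold range set per compound, and plates were normalised to 0.1 % DMSO (100) and a positive kill control (0). Values are normalised signals, each at a single concentration.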

HCC1143 [2] = test: as above
Procedure, shortened: as §1

BT-474 [3] = test: as above
Procedure, shortened: as §1

CAL-51 [4] = test: as above
Procedure, shortened: as §1

CAL-148 [5] = test: as above
Procedure, shortened: as §1

BT-549 [6] = test: as above
Procedure, shortened: as §1

CAL-85-1 [7] = test: as above
Procedure, shortened: as §1

MFM-223 [8] = test: as above
Procedure, shortened: as §1

DU-4475 [9] = test: as above
Procedure, shortened: as §1

HCC1937 [10] = test: as above
Procedure, shortened: as §1

MDA-MB-231 [11] = test: as above
Procedure, shortened: as §1

Hs578T [12] = test: as above
Procedure, shortened: as §1

MDA-MB-436 [13] = test: as above
Procedure, shortened: as §1

MDA-MB-468 [14] = test: as above
Procedure, shortened: as §1

CAL-120 [15] = test: as above
Procedure, shortened: as §1

MCF-10A [16] = test: as above
Procedure, shortened: as §1

HCC1599 [17] = test: as above
Procedure, shortened: as §1

HDQ-P1 [18] = test: as above
Procedure, shortened: as §1

MDA-MB-453 [19] = test: normalised response (% of control), CellTiter-Glo; higher = more viable cells (100 = DMSO, 0 = benzethonium chloride kill control)
Experimental: (§2)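 DSRT, 72 h incubation, CellTox Green / CellTiter-Glo readout. Signal is normalised to DMSO and benzethonium chloride controls. Value is the normalised response at dose 3.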

HCC1143 [20] = test: as above
Experimental: as §2

BT-474 [21] = test: as above
Experimental: as §2

CAL-51 [22] = test: as above
Experimental: as §2

CAL-148 [23] = test: as above
Experimental: as §2

BT-549 [24] = test: as above
Experimental: as §2

CAL-85-1 [25] = test: as above
Experimental: as §2

MFM-223 [26] = test: as above
Experimental: as §2

DU-4475 [27] = test: as above
Experimental: as §2

HCC1937 [28] = test: as above
Experimental: as §2

SK-BR-3 = test: as above
Experimental: as §2

MDA-MB-231 [29] = test: as above
Experimental: as §2

Hs578T [30] = test: as above
Experimental: as §2

MDA-MB-436 [31] = test: as above
Experimental: as §2

MDA-MB-468 [32] = test: as above
Experimental: as §2

CAL-120 [33] = test: as above
Experimental: as §2

MCF-10A [34] = test: as above
Experimental: as §2

HCC1599 [35] = test: as above
Experimental: as §2

HDQ-P1 [36] = test: as above
Experimental: as §2

Row | SMILES | normalised response (MDA-MB-453 [1]) | normalised response (HCC1143 [2]) | normalised response (BT-474 [3]) | normalised response (CAL-51 [4]) | normalised response (CAL-148 [5]) | normalised response (BT-549 [6]) | normalised response (CAL-85-1 [7]) | normalised response (MFM-223 [8]) | normalised response (DU-4475 [9]) | normalised response (HCC1937 [10]) | normalised response (MDA-MB-231 [11]) | normalised response (Hs578T [12]) | normalised response (MDA-MB-436 [13]) | normalised response (MDA-MB-468 [14]) | normalised response (CAL-120 [15]) | normalised response (MCF-10A [16]) | normalised response (HCC1599 [17]) | normalised response (HDQ-P1 [18]) | normalised response (MDA-MB-453 [19]) | normalised response (HCC1143 [20]) | normalised response (BT-474 [21]) | normalised response (CAL-51 [22]) | normalised response (CAL-148 [23]) | normalised response (BT-549 [24]) | normalised response (CAL-85-1 [25]) | normalised response (MFM-223 [26]) | normalised response (DU-4475 [27]) | normalised response (HCC1937 [28]) | normalised response (SK-BR-3) | normalised response (MDA-MB-231 [29]) | normalised response (Hs578T [30]) | normalised response (MDA-MB-436 [31]) | normalised response (MDA-MB-468 [32]) | normalised response (CAL-120 [33]) | normalised response (MCF-10A [34]) | normalised response (HCC1599 [35]) | normalised response (HDQ-P1 [36])
1 | Cc1ccc(-c2cc(C(F)(F)F)nn2-c2ccc(S(N)(=O)=O)cc2)cc1 [Celecoxib] (100 nM) | 104% | 98.9% | 99.5% | 111% | 95.4% | 90.5% | 101% | 98.7% | 101% | 106% | 93.2% | 96.8% | 71.4% | 89.2% | 102% | 102% | 95.6% | 101% | 110% | 104% | 99% | 110% | 95.4% | 100% | 97.6% | 104% | 103% | 94% | 102% | 101% | 111% | 97.4% | 98.9% | 103% | 97.8% | 98.1% | 94.7%
2 | Nc1ccccc1NC(=O)c1ccc(CNC(=O)OCc2cccnc2)cc1 [Entinostat] (100 nM) | 101% | 67.2% | 100% | 101% | 104% | 110% | 103% | 99.3% | 100% | 101% | 103% | 109% | 80.2% | 105% | 97.4% |  | 96.6% | 107% | 103% | 103% | 94.8% | 76.1% | 104% | 115% | 112% | 104% | 105% | 94% | 107% | 98.6% | 102% | 102% | 96.8% | 98.2% | 108% | 96.9% | 104%
3 | O=C(/C=C/c1cccnc1)NCCCCC1CCN(C(=O)c2ccccc2)CC1 [Daporinad] (10 nM) | 105% | 58.3% | 95.6% | 112% | 96.1% |  | 105% | 84.7% | 101% | 101% | 95.4% | 21.9% | 93.7% | 106% | 100% | 96% | 101% | 105% | 21.1% | 45.2% | 97% | 115% | 115% | 102% | 44.6% | 5.44% | 30.4% | 42.5% | 103% | 91.5% | 18.4% | 105% | 1.06% | 56.2% | 41.6% | 4.73% | 74.4%
4 | CCCS(=O)(=O)Nc1ccc(F)c(C(=O)c2c[nH]c3ncc(-c4ccc(Cl)cc4)cc23)c1F [Vemurafenib] (100 nM) | 97.9% | 82.2% | 98.3% | 76.9% | 97.3% | 94.2% | 102% | 94.2% | 96.1% | 92.1% |  | 103% | 72.4% | 98.4% | 97.7% | 91.9% | 94% | 108% | 79.3% | 94.7% | 96.9% | 88.6% | 93.9% | 97.9% | 91.8% | 89.4% | 86.5% | 97.7% | 84.8% | 93.4% | 95.9% | 95.9% | 91.7% | 93.3% | 96.8% | 95.5% | 94.3%
5 | Nc1ncn([C@H]2C[C@H](O)[C@@H](CO)O2)c(=O)n1 [Decitabine] (100 nM) | 95.8% | 105% | 94.3% | 76% | 106% |  | 104% | 107% | 97.5% | 91.4% | 91.8% | 109% | 90.2% | 89.8% | 90.5% | 105% | 106% | 56.6% | 107% | 104% | 103% | 82.4% | 93.1% | 92.2% | 97.3% | 104% | 94.9% | 93.2% | 91.2% | 105% | 104% | 96.5% | 52.5% | 99.4% | 101% | 113% | 94.9%
6 | CC(=O)Nc1cccc(-n2c(=O)n(C3CC3)c(=O)c3c(Nc4ccc(I)cc4F)n(C)c(=O)c(C)c32)c1 [Trametinib] (2.5 nM) | 103% | 112% | 100% | 117% | 102% | 94.2% | 86.5% | 72.4% | 82.8% | 117% |  | 89.9% | 101% | 120% | 96.3% | 80.7% | 117% | 98.6% | 109% | 89.3% | 94% | 112% | 99.1% | 100% | 97.4% | 106% | 24.3% | 86.8% | 98.4% | 86.5% | 90.8% | 96.1% | 93.3% | 101% | 47.4% | 99.2% | 70.1%
7 | CC[C@@H]1C(=O)N(C)c2cnc(Nc3ccc(C(=O)NC4CCN(C)CC4)cc3OC)nc2N1C1CCCC1 [BI 2536] (10 nM) | 101% | 97.8% | 78.1% | 51.3% |  | -328% | 65.3% | 73% | 97.5% | 116% | 10.1% | 89.4% | 51.6% | 56.6% | 88.2% | 64.3% | 101% | 55.5% | 70.5% | 55.7% | 74.3% | 67.2% | 55.6% | 37% | 43.9% | 44.3% | 85.2% | 84.8% | 15.6% | 51.4% | 83.9% | 44.2% | 37.3% | 70.5% | 82.4% | 92.6% | 78.4%
8 | CC[C@H](Nc1ncnc2[nH]cnc12)c1nc2cccc(F)c2c(=O)n1-c1ccccc1 [GS-1101] (100 nM) | 100% | 107% | 93% | 93.3% | 102% | 105% | 93.9% | 78% | 97.6% | 87.8% | 84.8% | 94% | 80.1% | 103% | 102% |  | 94% | 105% | 84.8% | 98.5% | 92.7% | 93.3% | 96.1% | 95.1% | 90.4% | 91.9% | 102% | 90.8% | 85.2% | 92% | 96.8% | 90% | 86.8% | 94.6% | 84.1% | 93% | 93.1%
9 | Nc1nc(F)nc2c1ncn2[C@@H]1O[C@H](CO)[C@@H](O)[C@@H]1O [Fludarabine] (100 nM) | 108% | 119% | 99.6% | 109% | 107% |  | 101% | 104% | 105% | 116% | 116% | 99.5% | 101% | 131% | 101% | 98.4% | 108% | 101% | 120% | 102% | 106% | 94.1% | 107% | 102% | 101% | 111% | 106% | 98.3% | 108% | 119% | 107% | 101% | 113% | 101% | 113% | 122% | 98.8%
